# Results: patent publication US10632125B2, “MTH1 inhibitors for treatment of inflammatory and autoimmune conditions” (THOMAS HELLEDAYS STIFTELSE FÖR MEDICINSK FORSKNING, priority 2014, dated 2020)
# Like-named read-outs stand apart in the source and are kept apart here.
# Molecular target: MTH1 (Homo sapiens, UniProt P36639)
# Test: MTH1 enzymatic assay (malachite green, coupled to pyrophosphatase)
# Assay type: biochemical
# [1] = dGTP 100 μM, MTH1 6 nM, 96- or 384-well format, read-out: IC50
SMILES,IC50 [1],IC50
"Cc1cccc(-c2cc(NCCNc3nc4ccccc4o3)nc(N)n2)c1C [Example 393, 4-N-{2-[(1,3-Benzoxazol-2-yl)amino]ethyl}-6-(2,3-dimethylphenyl)pyrimidine-2,4-diamine]",< 200 nM,–
"Cc1cccc(-c2cc(NC(C)CCc3ccccc3)nc(N)n2)c1C (stereo not shown) [Example 394, 6-(2,3-Dimethylphenyl)-4-N-(4-phenylbutan-2-yl)pyrimidine-2,4-diamine]",< 200 nM,–
"Cc1cccc(-c2cc(NCCNc3nc(Br)ns3)nc(N)n2)c1C [Example 398, 4-N-{2-[(3-Bromo-1,2,4-thiadiazol-5-yl)amino]ethyl}-6-(2,3-dimethylphenyl)pyrimidine-2,4-diamine]",< 200 nM,–
"Cc1cccc(-c2cc(NCCc3nnc(-c4ccc(F)cc4)o3)nc(N)n2)c1C [Example 400, 6-(2,3-Dimethylphenyl)-4-N-{2-[5-(4-fluorophenyl)-1,3,4-oxadiazol-2-yl]ethyl}pyrimidine-2,4-diamine]",< 200 nM,–
"Cc1cccc(-c2cc(NCCNS(=O)(=O)c3ccc(S(C)(=O)=O)cc3)nc(N)n2)c1C [Example 401, N-(2-{[2-Amino-6-(2,3-dimethylphenyl)pyrimidin-4-yl]amino}ethyl)-4-methanesulfonylbenzene-1-sulfonamide]",< 200 nM,–
"Cc1nc(CCNc2cc(-c3cccc(Cl)c3C)nc(N)n2)n[nH]1 [Example 412, 6-(3-chloro-2-methylphenyl)-4-N-[2-(5-methyl-1H-1,2,4-triazol-3-yl)ethyl]pyrimidine-2,4-diamine]",< 200 nM,–
"Cc1c(Cl)cccc1-c1cc(NCCc2ccc(S(=O)(=O)N(C)C)cc2)nc(N)n1 [Example 414, 4-(2-{[2-amino-6-(3-chloro-2-methylphenyl)pyrimidin-4-yl]amino}ethyl)-N,N-dimethylbenzene-1-sulfonamide]",< 200 nM,–
"Cc1cccc(-c2cc(NC3(Cc4ccc(Cl)cc4)CC3)nc(N)n2)c1C [Example 417, 4-N-{1-[(4-Chlorophenyl)methyl]cyclopropyl}-6-(2,3-dimethylphenyl)pyrimidine-2,4-diamine]",< 200 nM,–
"[2H]C([2H])([2H])Nc1cc(-c2cccc(Cl)c2Cl)nc(N)n1 [Example 421, 6-(2,3-dichlorophenyl)-4-N-(^2H3)methylpyrimidine-2,4-diamine]",–,< 200 nM
"Cc1c(F)ccc(-c2cc(NCCc3ccc(S(N)(=O)=O)cc3)nc(N)n2)c1C [Example 425, 4-(2-{[2-amino-6-(4-fluoro-2,3-dimethylphenyl)pyrimidin-4-yl]amino}ethyl)benzene-1-sulfonamide]",< 200 nM,–
"Cc1ccc(Cl)cc1-c1cc(NCCc2ccc(S(N)(=O)=O)cc2)nc(N)n1 [Example 427, 4-(2-{[2-amino-6-(5-chloro-2-methylphenyl)pyrimidin-4-yl]amino}ethyl)benzene-1-sulfonamide]",< 200 nM,–
"Cc1c(-c2cc(NCCc3ccc(S(C)(=O)=O)cc3)nc(N)n2)ccc(Cl)c1Cl [Example 431, 6-(3,4-dichloro-2-methylphenyl)-4-N-[2-(4-methanesulfonylphenyl)ethyl]pyrimidine-2,4-diamine]",< 200 nM,–
"Nc1nc(NCCc2ccc(S(N)(=O)=O)cc2)cc(-c2ccc(F)cc2Cl)n1 [Example 433, 4-(2-{[2-amino-6-(2-chloro-4-fluorophenyl)pyrimidin-4-yl]amino}ethyl)benzene-1-sulfonamide]",< 200 nM,–
"Cc1cc(-c2cc(NCCc3ccc(S(N)(=O)=O)cc3)nc(N)n2)ccc1F [Example 435, 4-(2-{[2-amino-6-(4-fluoro-3-methylphenyl)pyrimidin-4-yl]amino}ethyl)benzene-1-sulfonamide]",< 200 nM,–
"Cc1c(C#N)cccc1-c1cc(NC2CC2)nc(N)n1 [Example 437, 3-[2-amino-6-(cyclopropylamino)pyrimidin-4-yl]-2-methylbenzonitrile]",< 200 nM,–
"C#CCNc1cc(-c2cccc(Cl)c2Cl)nc(N)n1 [Example 438, 6-(2,3-dichlorophenyl)-4-N-(prop-2-yn-1-yl)pyrimidine-2,4-diamine]",< 200 nM,–
"Cc1cccc(-c2cc(NCCc3c(C)n[nH]c3C)nc(N)n2)c1C [Example 440, 4-N-[2-(3,5-dimethyl-1H-pyrazol-4-yl)ethyl]-6-(2,3-dimethylphenyl)pyrimidine-2,4-diamine]",< 200 nM,–
"Cc1cccc(-c2cc(NCCNc3ccc(Cl)nn3)nc(N)n2)c1C [Example 441, 4-N-{2-[(6-chloropyridazin-3-yl)amino]ethyl}-6-(2,3-dimethylphenyl)pyrimidine-2,4-diamine]",< 200 nM,–
"Cc1cccc(-c2cc(NCCNc3cc(C#N)ccn3)nc(N)n2)c1C [Example 442, 2-[(2-{[2-amino-6-(2,3-dimethylphenyl)pyrimidin-4-yl]amino}ethyl)amino]pyridine-4-carbonitrile]",< 200 nM,–
"Cc1ccc(NCCNc2cc(-c3cccc(C)c3C)nc(N)n2)cc1F [Example 448, 6-(2,3-dimethylphenyl)-4-N-{2-[(3-fluoro-4-methylphenyl)amino]ethyl}pyrimidine-2,4-diamine]",< 200 nM,–
"Cc1cccc(-c2cc(NCCNc3ccc(Cl)c(Cl)c3)nc(N)n2)c1C [Example 449, 4-N-{2-[(3,4-dichlorophenyl)amino]ethyl}-6-(2,3-dimethylphenyl)pyrimidine-2,4-diamine]",< 200 nM,–
"Cc1cccc(-c2cc(NCCNc3ccc(Cl)cn3)nc(N)n2)c1C [Example 450, 4-N-{2-[(5-chloropyridin-2-yl)amino]ethyl}-6-(2,3-dimethylphenyl)pyrimidine-2,4-diamine]",< 200 nM,–

SMILES,IC50 [1],IC50
"Cc1cccc(-c2cc(NCCNc3ccc(S(N)(=O)=O)cc3)nc(N)n2)c1C [Example 452, 4-[(2-{[2-amino-6-(2,3-dimethylphenyl)pyrimidin-4-yl]amino}ethyl)amino]benzene-1-sulfonamide]",< 200 nM,–
"Cc1c(Cl)cccc1-c1cc(NCCc2ccc(Cl)cc2)nc(N)n1 [Example 461, 6-(3-chloro-2-methylphenyl)-4-N-[2-(4-chlorophenyl)ethyl]pyrimidine-2,4-diamine]",< 200 nM,–
"CNc1cc(-c2ccsc2)nc(N)n1 [Example 463, 4-N-methyl-6-(thiophen-3-yl)pyrimidine-2,4-diamine]",< 200 nM,–
"CNc1cc(-c2cc(C)cs2)nc(N)n1 [Example 464, 4-N-methyl-6-(4-methylthiophen-2-yl)pyrimidine-2,4-diamine]",< 200 nM,–
"CNc1cc(-c2ccnn2C)nc(N)n1 [Example 465, 4-N-methyl-6-(1-methyl-1H-pyrazol-5-yl)pyrimidine-2,4-diamine]",< 200 nM,–
"Nc1nc(NCCNc2ccc(Br)cn2)cc(-c2cccc(Cl)c2Cl)n1 [Example 466, 4-N-{2-[(5-bromopyridin-2-yl)amino]ethyl}-6-(2,3-dichlorophenyl)pyrimidine-2,4-diamine]",< 200 nM,–
"CNc1cc(-c2cc[nH]c2)nc(N)n1 [Example 468, 4-N-methyl-6-(1H-pyrrol-3-yl)pyrimidine-2,4-diamine]",< 200 nM,–
"COCC(=O)NCCCCNc1cc(-c2cccc(Cl)c2Cl)nc(N)n1 [Example 469, N-(4-{[2-amino-6-(2,3-dichlorophenyl)pyrimidin-4-yl]amino}butyl)-2-methoxyacetamide]",< 200 nM,–
"Nc1nc(NCCCCNC(=O)C(F)(F)F)cc(-c2cccc(Cl)c2Cl)n1 [Example 470, N-(4-{[2-amino-6-(2,3-dichlorophenyl)pyrimidin-4-yl]amino}butyl)-2,2,2-trifluoroacetamide]",< 200 nM,–
"CS(=O)(=O)c1ccc(C(=O)NCCCCNc2cc(-c3cccc(Cl)c3Cl)nc(N)n2)cc1 [Example 471, N-(4-{[2-amino-6-(2,3-dichlorophenyl)pyrimidin-4-yl]amino}butyl)-4-methanesulfonylbenzamide]",< 200 nM,–
"Nc1nc(NCCCCNC(=O)c2ccno2)cc(-c2cccc(Cl)c2Cl)n1 [Example 472, N-(4-{[2-amino-6-(2,3-dichlorophenyl)pyrimidin-4-yl]amino}butyl)-1,2-oxazole-5-carboxamide]",< 200 nM,–
"Nc1nc(NCCCCNC(=O)c2ccc(Cl)c(Cl)c2)cc(-c2cccc(Cl)c2Cl)n1 [Example 473, N-(4-{[2-amino-6-(2,3-dichlorophenyl)pyrimidin-4-yl]amino}butyl)-3,4-dichlorobenzamide]",< 200 nM,–
"CC(C)(C)C(=O)NCCCCNc1cc(-c2cccc(Cl)c2Cl)nc(N)n1 [Example 474, N-(4-{[2-amino-6-(2,3-dichlorophenyl)pyrimidin-4-yl]amino}butyl)-2,2-dimethylpropanamide]",< 200 nM,–
"CS(=O)(=O)c1ccc(S(=O)(=O)NCCCCNc2cc(-c3cccc(Cl)c3Cl)nc(N)n2)cc1 [Example 475, N-(4-{[2-amino-6-(2,3-dichlorophenyl)pyrimidin-4-yl]amino}butyl)-4-methanesulfonylbenzene-1-sulfonamide]",< 200 nM,–
"CNc1cc(-c2ccoc2C)nc(N)n1 [Example 478, 4-N-methyl-6-(2-methylfuran-3-yl)pyrimidine-2,4-diamine]",< 200 nM,–
"CNc1cc(-c2ccc(CN3CCCC3)s2)nc(N)n1 [Example 479, 4-N-methyl-6-[5-(pyrrolidin-1-ylmethyl)thiophen-2-yl]pyrimidine-2,4-diamine]",< 200 nM,–
"Nc1nc(NCCc2ccc(Cl)cc2)cc(-c2ccccc2CO)n1 [Example 481, [2-(2-amino-6-{[2-(4-chlorophenyl)ethyl]amino}pyrimidin-4-yl)phenyl]methanol]",< 200 nM,–
"Cc1c(Cl)cccc1-c1cc(NC2CC2)nc(N)n1 [Example 482, 6-(3-chloro-2-methylphenyl)-4-N-cyclopropylpyrimidine-2,4-diamine]",< 200 nM,–
"Cc1c(Cl)cccc1-c1cc(NCCF)nc(N)n1 [Example 483, 6-(3-chloro-2-methylphenyl)-4-N-(2-fluoroethyl)pyrimidine-2,4-diamine]",< 200 nM,–
"Cc1cccc(-c2cc(NCCF)nc(N)n2)c1C [Example 484, 6-(2,3-dimethylphenyl)-4-N-(2-fluoroethyl)pyrimidine-2,4-diamine]",< 200 nM,–
"CNc1cc(-c2cnn(CCC(N)=O)c2)nc(N)n1 [Example 487, 3-{4-[2-amino-6-(methylamino)pyrimidin-4-yl]-1H-pyrazol-1-yl}propanamide]",< 200 nM,–
